Experimental data from ChEMBL document CHEMBL3808375, “Design of Novel Aminoglycoside Derivatives with Enhanced Suppression of Diseases-Causing Nonsense Mutations” (ACS Med Chem Lett, 2016).
Converted amounts (≈) assume the structure as drawn.

Legend:
[1] = Binding affinity to decoding site rRNA of ribosome in TNT rabbit reticulocyte lysate using luciferase T7 control DNA plasmid assessed as inhibition of translation incubated for 60 mins by luciferase reporter gene based coupled transcription/translation assay; set-up: species or system Oryctolagus cuniculus
[2] = tested on: Bacillus spizizenii; test: microbe, parasite or virus in culture; assay type: functional; conditions: ATCC 6633
Description: Antibacterial activity against Bacillus subtilis ATCC 6633 by double microdilution assay

[3] = Binding affinity to decoding site rRNA of ribosome in Escherichia coli using Escherichia coli S30 circular DNA assessed as inhibition of translation incubated for 60 mins by luciferase reporter gene based coupled transcription/translation assay
[4] = tested on: Escherichia coli; test: microbe, parasite or virus in culture; assay type: functional; conditions: R477/100
Description: Antibacterial activity against Escherichia coli R477/100 by double microdilution assay

[5] = Binding affinity to decoding site rRNA of ribosome in Escherichia coli using Escherichia coli S30 circular DNA assessed as inhibition of translation incubated for 20 mins by luciferase reporter gene based coupled transcription/translation assay

SMILES	IC50 [1] [µM]	MIC [2] [µM]	IC50 [3] [µM]	MIC [4] [µM]	IC50 [5] [µM]
CN[C@@H]1[C@@H](O)[C@@H](O[C@@H]2[C@@H](O)[C@H](O[C@H]3O[C@H](CN)CC[C@H]3N)[C@@H](N)C[C@H]2N)OC[C@]1(C)O	62	< 0.75	–	–	–
NC[C@H]1O[C@@H](O[C@H]2[C@H](O)[C@@H](N)C[C@@H](N)[C@@H]2O[C@H]2O[C@H]([C@H](O)CO)[C@@H](O)[C@H](O)[C@H]2N)[C@H](O)[C@@H]1O	7.5	34 (≈ 16.5 µg/mL)	0.7	> 273	–
C[C@H](N)[C@H]1O[C@@H](O[C@H]2[C@H](O)[C@@H](N)C[C@@H](N)[C@@H]2O[C@H]2O[C@H]([C@H](O)CO)[C@@H](O)[C@H](O)[C@H]2N)[C@H](O)[C@@H]1O	1.2	64 (≈ 31.9 µg/mL)	1.2	> 257	–
C[C@H](N)[C@H]1O[C@@H](O[C@H]2[C@H](O)[C@@H](N)C[C@@H](N)[C@@H]2O[C@H]2O[C@H]([C@@H](C)O)[C@@H](O)[C@H](O)[C@H]2N)[C@H](O)[C@@H]1O	1.5	156 (≈ 75.3 µg/mL)	1.1	1270 (≈ 611 µg/mL)	–
CN[C@@H]1[C@@H](O)[C@@H](O[C@H]2[C@H](O)[C@@H](O[C@H]3O[C@H](C(C)O)[C@@H](O)[C@H](O)[C@H]3N)[C@H](N)C[C@@H]2N)OC[C@]1(C)O (some centres undefined)	–	< 1.25	0.01	9 (≈ 4.47 µg/mL)	–
N[C@H]1[C@@H](O[C@@H]2[C@@H](O)[C@H](O)[C@@H](N)C[C@H]2N)O[C@H](C(O)CO)[C@@H](O)[C@@H]1O (mixture of isomers)	–	–	–	–	24
N[C@H]1[C@@H](O[C@H]2[C@H](O)[C@@H](O)[C@H](N)C[C@@H]2N)O[C@H](CO)[C@@H](O)[C@@H]1O [PAROMAMINE]	–	–	–	–	3.9

The next lines start with results.

IC50 [1] [µM]	MIC [2] [µM]	IC50 [3] [µM]	MIC [4] [µM]	SMILES	IC50 [5] [µM]
516	> 375	91.9	> 375	N[C@H]1[C@@H](O[C@@H]2[C@@H](O)[C@H](O)[C@@H](N)C[C@H]2N)O[C@H]([C@@H](O)CO)[C@@H](O)[C@@H]1O	–
120	311 (≈ 110 µg/mL)	11	> 311	N[C@H]1[C@@H](O[C@@H]2[C@@H](O)[C@H](O)[C@@H](N)C[C@H]2N)O[C@H]([C@H](O)CO)[C@@H](O)[C@@H]1O	–
347	–	6	–	C[C@@H](O)[C@H]1O[C@H](O[C@@H]2[C@@H](O)[C@H](O)[C@@H](N)C[C@H]2N)[C@H](N)[C@@H](O)[C@@H]1O	–
